EP0319906A2, “Novel quinoline derivatives, processes for preparation thereof and antibacterial agent containing them” (Dainippon Pharmaceutical Co., Ltd., priority 1987, dated 1989)
Values after ≈ are worked out from the molar mass of the structure shown.

How the values were obtained:
Assay type in all cases: cell-based
M. pneumoniae Mac = test: Antimycoplasma activity, twofold agar dilution MIC; conditions: Mycoplasmoides pneumoniae, 168 h; M. pneumoniae Mac; Chanock agar, 37 °C for 7 days, aerobically; calculated for free base; read-out: minimum inhibitory concentrations (MIC)
Method: (§1) The figures in the table show minimum inhibitory concentrations (MIC), (μg/ml), calculated for free base. Minimum inhibitory concentrations (MIC) were determined by the twofold agar dilution method. The media used were Chanock broth and agar [PPLD broth and agar (Difco) supplemented with 20 % horse serum and 10 % fresh yeast extract]. A 2-3 day broth culture of organisms was diluted with Chanock broth to a cell density of about 10^6 cells/ml. One loopful (about […]) of the organism dilution was spotted onto 10-ml drug containing Chanock agar in petri dishes using a multiple inoculator ([…] International). […] Incubation was performed anaerobically using the […] anaerobic system (BBL) for M. buccale, M. fermentans, M. hominis, M. orale and M. salivarium, and aerobically for other Mycoplasma spp. The MIC was defined as the lowest compound concentration at which no growth of organism was detected.

M. hominis PG-21 = test: Antimycoplasma activity, twofold agar dilution MIC; conditions: Metamycoplasma hominis, PG21, 48 h; M. hominis PG-21; Chanock agar, 37 °C for 2 days, anaerobically; calculated for free base; read-out: minimum inhibitory concentrations (MIC)
Method: as §1

M. buccale CH-20249 = test: Antimycoplasma activity, twofold agar dilution MIC; conditions: 48 h; M. buccale CH-20249; Chanock agar, 37 °C for 2 days, anaerobically; calculated for free base; read-out: minimum inhibitory concentrations (MIC)
Method: as §1

M. salivarium PG-20 = test: Antimycoplasma activity, twofold agar dilution MIC; conditions: 48 h; M. salivarium PG-20; Chanock agar, 37 °C for 2 days, anaerobically; calculated for free base; read-out: minimum inhibitory concentrations (MIC)
Method: as §1

M. fermentans PG-18 = test: Antimycoplasma activity, twofold agar dilution MIC; conditions: Mycoplasmopsis fermentans, PG18, 48 h; M. fermentans PG-18; Chanock agar, 37 °C for 2 days, anaerobically; calculated for free base; read-out: minimum inhibitory concentrations (MIC)
Method: as §1

M. hyorhinis BST-7 = test: Antimycoplasma activity, twofold agar dilution MIC; conditions: Mesomycoplasma hyorhinis, BST7, 48 h; M. hyorhinis BST-7; Chanock agar, 37 °C for 2 days, aerobically; calculated for free base; read-out: minimum inhibitory concentrations (MIC)
Method: as §1

M. orale CH-19299 = test: Antimycoplasma activity, twofold agar dilution MIC; conditions: po, 48 h; M. orale CH-19299; Chanock agar, 37 °C for 2 days, anaerobically; calculated for free base; read-out: minimum inhibitory concentrations (MIC)
Method: as §1

M. arginini G-230 = test: Antimycoplasma activity, twofold agar dilution MIC; conditions: 48 h; M. arginini G-230; Chanock agar, 37 °C for 2 days, aerobically; calculated for free base; read-out: minimum inhibitory concentrations (MIC)
Method: as §1

A. laidlawii PG-8 = test: Antimycoplasma activity, twofold agar dilution MIC; conditions: Acholeplasma laidlawii, PG8, 48 h; A. laidlawii PG-8; Chanock agar, 37 °C for 2 days, aerobically; calculated for free base; read-out: minimum inhibitory concentrations (MIC)
Method: as §1

C. Trachomatics G/ur 931 = test: Antichlamydia activity, MIC in McCoy cells (inclusion bodies); conditions: C. Trachomatics G/ur 931; McCoy cells, 36 °C for 40-48 hours; calculated for free base; read-out: minimum inhibitory concentrations (MIC)
Method: (§2) The figures in the table show minimum inhibitory concentrations (MIC), (μg/ml), calculated for free base. Minimum inhibitory concentrations (MIC) were determined as follows. […] The cells were trypsinized and suspended in the same culture medium at a cell concentration of 1-2 x 10^5 cells/ml. One ml of the cell suspension was pipetted into flat-bottomed plastic tubes (14 mm in diameter) containing a cover slip (12 mm in diameter). The tubes were incubated in 5 % CO2-air at 36 °C for 20 hours. One-half ml of a chlamydial suspension (ca. 1-4 x 103 inclusion body forming units) was added into each tube, which was then centrifuged at 1500 x g for 60 minutes. The tubes were incubated for 1 hour at 36 °C. […] After further incubation at 36 °C for 40-48 hours, the cells on the cover glasses were stained with the Giemsa's solution. […] The MIC was defined as the lowest drug concentration where there were no inclusion bodies in all the cells on the cover slip.

[1] = tested on: C. Trachomatics G/ur 1317; test: as above; conditions: C. Trachomatics G/ur 1317; McCoy cells, 36 °C for 40-48 hours; calculated for free base; read-out: minimum inhibitory concentrations (MIC)
Method: as §2

[2] = tested on: C. Trachomatics G/ur 1448; test: as above; conditions: C. Trachomatics G/ur 1448; McCoy cells, 36 °C for 40-48 hours; calculated for free base; read-out: minimum inhibitory concentrations (MIC)
Method: as §2

[3] = tested on: C. Trachomatics G/ur 1242; test: as above; conditions: C. Trachomatics G/ur 1242; McCoy cells, 36 °C for 40-48 hours; calculated for free base; read-out: minimum inhibitory concentrations (MIC)
Method: as §2

P. aeruginosa 12 = test: In vitro antibacterial activity, twofold agar-dilution MIC; conditions: Pseudomonas aeruginosa; P. aeruginosa 12; Mueller-Hinton agar, 20-hour incubation at 37 °C; calculated for free base; read-out: minimum inhibitory concentrations (MIC)
Method: (§3) The figures in the table show minimum inhibitory concentrations (MIC) (µg/ml), calculated for free base. […] One loopful of an overnight culture of test organisms in Mueller-Hinton broth was inoculated onto 10 ml drug- containing agar layers in petri dishes. Bacterial inocula contained approximately 10⁶ colonyl-forming units. […] The MIC was defined as the lowest drug concentration which prevented visible bacterial growth.

S. marcescens S-9 = test: as above; conditions: Serratia marcescens, S9; S. marcescens S-9; Mueller-Hinton agar, 20-hour incubation at 37 °C; calculated for free base; read-out: minimum inhibitory concentrations (MIC)
Method: as §3

S. aureus Terajima = test: as above; conditions: Staphylococcus aureus; S. aureus Terajima; Mueller-Hinton agar, 20-hour incubation at 37 °C; calculated for free base; read-out: minimum inhibitory concentrations (MIC)
Method: as §3

S. aureus 209 JC-1 = test: as above; conditions: Staphylococcus aureus, 209JC1; S. aureus 209 JC-1; Mueller-Hinton agar, 20-hour incubation at 37 °C; calculated for free base; read-out: minimum inhibitory concentrations (MIC)
Method: as §3

S. aureus No. 80 = test: as above; conditions: Staphylococcus aureus; S. aureus No. 80; Mueller-Hinton agar, 20-hour incubation at 37 °C; calculated for free base; read-out: minimum inhibitory concentrations (MIC)
Method: as §3

E. coli NIHJ JC-2 = test: as above; conditions: Escherichia coli, NIHJJC2; E. coli NIHJ JC-2; Mueller-Hinton agar, 20-hour incubation at 37 °C; calculated for free base; read-out: minimum inhibitory concentrations (MIC)
Method: as §3

E. coli P-5101 = test: as above; conditions: Escherichia coli, P5101; E. coli P-5101; Mueller-Hinton agar, 20-hour incubation at 37 °C; calculated for free base; read-out: minimum inhibitory concentrations (MIC)
Method: as §3

S. epidermidis No. 8 = test: as above; conditions: Staphylococcus epidermidis; S. epidermidis No. 8; Mueller-Hinton agar, 20-hour incubation at 37 °C; calculated for free base; read-out: minimum inhibitory concentrations (MIC)
Method: as §3

S. pyogenes A65 = test: as above; conditions: Streptococcus pyogenes; S. pyogenes A65; Mueller-Hinton agar, 20-hour incubation at 37 °C; calculated for free base; read-out: minimum inhibitory concentrations (MIC)
Method: as §3

MIC (M. pneumoniae Mac): 0.2 µg/mL (≈ 0.53 µM)
MIC (M. hominis PG-21): 0.2 µg/mL (≈ 0.53 µM)
MIC (M. buccale CH-20249): 0.2 µg/mL (≈ 0.53 µM)
MIC (M. salivarium PG-20): 0.78 µg/mL (≈ 2.07 µM)
MIC (M. fermentans PG-18): 0.1 µg/mL (≈ 0.265 µM)
MIC (M. hyorhinis BST-7): 0.1 µg/mL (≈ 0.265 µM)
MIC (M. orale CH-19299): 0.78 µg/mL (≈ 2.07 µM)
MIC (M. arginini G-230): 0.39 µg/mL (≈ 1.03 µM)
MIC (A. laidlawii PG-8): 0.39 µg/mL (≈ 1.03 µM)
MIC (C. Trachomatics G/ur 931): 0.2 µg/mL (≈ 0.53 µM)
MIC [1]: 0.2 µg/mL (≈ 0.53 µM)
MIC [2]: 0.2 µg/mL (≈ 0.53 µM)
MIC [3]: 0.2 µg/mL (≈ 0.53 µM)
MIC (P. aeruginosa 12): 0.78 µg/mL (≈ 2.07 µM)
MIC (S. marcescens S-9): 0.2 µg/mL (≈ 0.53 µM)
MIC (S. aureus Terajima): 0.1 µg/mL (≈ 0.265 µM)
MIC (S. aureus 209 JC-1): 0.1 µg/mL (≈ 0.265 µM)
MIC (S. aureus No. 80): 0.1 µg/mL (≈ 0.265 µM)
MIC (E. coli NIHJ JC-2): 0.0125 µg/mL (≈ 0.0331 µM)
MIC (E. coli P-5101): 0.0125 µg/mL (≈ 0.0331 µM)
MIC (S. epidermidis No. 8): 0.1 µg/mL (≈ 0.265 µM)
MIC (S. pyogenes A65): 0.78 µg/mL (≈ 2.07 µM)
Structure (SMILES): C[C@@H]1CN(c2c(F)cc3c(=O)c(C(=O)O)cn(C4CC4)c3c2F)C[C@H](C)N1 [Compound C, 1-cyclopropyl-6,8-difluoro-7-(cis-3,5-dimethyl-1-piperazinyl)-1,4-dihydro-4-oxoquinoline-3-carboxylic acid]
